{"source": "patent US5340925A", "about": "“Normal human growth regulatory receptor for TGF-β” (Oncogen, priority 1992, dated 1994)", "key": {"HEPM cells": {"test_system": "HEPM cells", "assay": "Growth stimulation assay: incorporation of 5-[125I]iodo-2'-deoxyuridine into DNA of quiescent HEPM cells", "type": "cell-based, human", "conditions": "66 h + 6 h radionuclide label", "description": "FIGS. 1(A) and 1(B) Bioactivity of TGF-β on HEPM cells: incorporation of radionuclide into DNA. Results are presented as percent stimulation vs the picomolar (pM) concentration of TGF-β. Percent stimulation was calculated as follows: treated (cpm)-untreated (cpm)/untreated (cpm) x 100. Panel A: TGF-β1, treatment. Panel B: TGF-β2 treatment.\nHEPM cells (5,000 cells/50 μl ) were subcultured in 96-well tissue culture plates (Falcon 30072) in growth medium comprising minimal essential medium (Gibco, Grand Island, N.Y.) supplemented with 10% heat-inactivated fetal bovine serum, 600 μg/ml L-glutamine, 500 μg/ml penicillin and 500 μg/ml streptomycin for a 24-hour period at 37° C. in a humidified 5% CO2 /95% air atosphere. A nondividing, quiescent state of growth was achieved by subsequent incubation for 48 hours in growth medium supplemented with 0.5% fetal bovine serum. Quiescent cells were then stimulated to proliferate by the addition of fetal bovine serum (10 μl ) and test samples of TGF-β1, or TGF-β2 (50 μl). The cells were incubated an additional 66 hours at 37° C. […] The amount of cell growth was measured by the amount of radionuclide incorporated into the DNA of actively growing cells."}, "[1]": {"test_system": "TGF-β receptor on HEPM cells", "assay": "TGF-β receptor down-regulation in TGF-β1 treated HEPM cells, assessed by radioreceptor assay", "type": "cell-based, human", "conditions": "for Kd: HEPM cells treated 18 hours with 100 pM TGF-β1", "description": "HEPM cells were grown to confluence (1×10^5 cells/well) in 24-well Costar tissue culture plates. Prior to the binding assay, cells were pre-incubated in serum-free growth medium at 37° C. for 4 hours to allow for the dissociation of TGF-β from occupied cells surface receptors. The resulting monolayers were washed 2 times in binding buffer (Dulbecco's MEM+0.1% BSA+25 mM HEPES). 250 μl of binding buffer containing 0.5 μg/ml [^125 I]-iodoTGF-β1, (specific activity of 100 μCi/μg) together with increasing amounts of unlabeled TGF-β1 were added to duplicate wells. Steady state binding was carried out at 4° C. for 3 hours. After incubation cells were washed 3 times with cold binding buffer and solubilized in 200 μl of Triton solution (20 mM HEPES, 1% Triton X-100, 10% glycerol, 0.01% BSA, pH 7.4). Radioactivity was determined using a gamma spectrometer. Non-specific binding was determined in the presence of a 1,000-fold molar excess unlabeled TGF-β1.\nBriefly, HEPM cells were treated with 100pM TGF-β1, for 18 hours, washed with serum-free medium, and incubated in fresh serum-free medium for 60 minutes to allow for the disassociation of residually bound TGF-β1. The radioreceptor assay described in Materials and Methods was used to assess the extent of receptor down-regulation in the treated cells relative to untreated control cells. […] The combined total receptor down-regulation observed was 57%."}, "[2]": {"conditions": "100 pM TGF-β1, 18 hours, vs control cells"}}, "note": "Where two headings read alike, the source gives them in different places.", "data": [{"substance": "TGF-β1: Transforming growth factor-Beta type 1; two identical disulfide linked subunits having molecular weights of 13,000; recombinant material used", "values": [{"measurement": "ED50 in stimulating the proliferation of HEPM cells (half-maximal growth stimulation)", "setting": "HEPM cells", "value": 0.005, "unit": "nM"}, {"measurement": "high affinity binding sites in treated cells", "setting": "[1]; 100 pM TGF-β1, 18 hours", "value": "14,000 sites/cell"}, {"measurement": "low affinity binding sites in treated cells", "setting": "[1]; 100 pM TGF-β1, 18 hours", "value": "108,800 sites/cell"}, {"measurement": "combined total receptor down-regulation", "setting": "[1]; [2]", "value": 57, "unit": "%"}, {"measurement": "down-regulation of the high affinity binding sites", "setting": "[1]; [2]", "value": 74, "unit": "%"}, {"measurement": "down-regulation of the low affinity binding sites", "setting": "[1]; [2]", "value": 53, "unit": "%"}, {"measurement": "Kd", "setting": "[1]; read-out: kd, high affinity binding sites", "value": 0.04, "unit": "nM"}, {"measurement": "Kd", "setting": "[1]; read-out: kd, low affinity binding sites", "value": 0.974, "unit": "nM"}]}]}
